Results from patent publication US20040038855A1 (priority 1999, published 2004).
Where a name gives a salt, the structure may show the parent alone. Read-outs that look alike come from different tables or passages of the source.

What was measured:
human GALR3 receptor = molecular target: T1, human GALR3 receptor (Homo sapiens, UniProt O60755); test: Binding affinity at the human GALR3 receptor; details: read-out: hGALR3 Ki
T1 construct: expressed in transfected cells
T1 sequence (O60755 1-368): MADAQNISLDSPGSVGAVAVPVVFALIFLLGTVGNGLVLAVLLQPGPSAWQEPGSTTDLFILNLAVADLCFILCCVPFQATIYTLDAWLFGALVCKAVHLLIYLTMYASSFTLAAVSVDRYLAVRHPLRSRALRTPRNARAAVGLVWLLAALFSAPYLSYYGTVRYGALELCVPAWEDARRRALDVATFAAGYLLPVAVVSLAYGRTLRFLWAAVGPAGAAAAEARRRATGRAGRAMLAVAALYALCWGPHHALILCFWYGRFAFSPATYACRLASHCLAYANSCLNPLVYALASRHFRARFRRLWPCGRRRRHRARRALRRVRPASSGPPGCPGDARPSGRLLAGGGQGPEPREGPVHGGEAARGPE
Excerpt: (§1) The design of such compounds can be optimized by determining their binding affinity at the recombinant MCH1, NPY1, NPY2, Gal1, Gal2, Gal3, and 5HT2C receptors. The methods to obtain the cDNA of the receptor, express said receptors in heterologous systems, and carry out assays to determine binding affinity are described in the following publications: human NPY1 (Larhammar et al., 1992), human NPY5 (U.S. Pat. No. 5,602,024, the disclosure of which is hereby incorporated by reference in its entirety into this application), human Gall (Habert-Ortoli et al., 1994), human Gal2 (Smith et al., 1997), human Gal3 (Smith et al., 1998), and rat 5HT2C (Julius et al., 1988). Additionally, the compounds would optimally not bind at the following receptors due to possible side effects: human H1 histamine and human H2 histamine receptors; human alpha-1A adrenergic, human alpha-1D adrenergic, human alpha-2A adrenergic, human alpha-2B adrenergic, and human alpha-2C adrenergic receptors; human dopamine D1, D2, D3, D4, and D5 receptors; the β-adrenoceptor; and the human 5HT1A, human 5HT1B, human 5HT1D, human 5HT1E, human 5HT1F, human 5HT2A, rat 5HT2C, human 5HT4, human 5HT6, and human 5HT7 receptors.

human GALR2 receptor = molecular target: T2, human GALR2 receptor (Homo sapiens, UniProt O43603); test: Binding affinity at the human GALR2 receptor; details: Table 3a; read-out: hGALR2 Ki
T2 construct: expressed in transfected cells
T2 sequence (O43603 1-387): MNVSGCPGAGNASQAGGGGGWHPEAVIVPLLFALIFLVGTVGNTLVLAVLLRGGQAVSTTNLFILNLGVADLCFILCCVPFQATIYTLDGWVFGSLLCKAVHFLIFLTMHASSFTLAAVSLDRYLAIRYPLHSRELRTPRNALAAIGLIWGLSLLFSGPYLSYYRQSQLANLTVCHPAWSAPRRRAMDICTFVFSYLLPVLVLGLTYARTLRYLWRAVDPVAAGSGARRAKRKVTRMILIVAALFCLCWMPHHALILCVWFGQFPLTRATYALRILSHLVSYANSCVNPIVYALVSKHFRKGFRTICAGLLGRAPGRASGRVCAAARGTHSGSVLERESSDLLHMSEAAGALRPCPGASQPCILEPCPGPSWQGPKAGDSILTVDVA
Excerpt: as §1

human MCH1 receptor [1] = molecular target: T3, human MCH1 receptor (Homo sapiens, UniProt Q99705); test: Intracellular calcium response to MCH in COS-7 cells transfected with MCH1 (fluo-3, FLIPR): antagonist potency; type: cell-based; parameters: expressed in transfected cells; host or cells: COS-7; details: read-out: Kb (nM) hMCH1
T3 sequence (Q99705 whole entry): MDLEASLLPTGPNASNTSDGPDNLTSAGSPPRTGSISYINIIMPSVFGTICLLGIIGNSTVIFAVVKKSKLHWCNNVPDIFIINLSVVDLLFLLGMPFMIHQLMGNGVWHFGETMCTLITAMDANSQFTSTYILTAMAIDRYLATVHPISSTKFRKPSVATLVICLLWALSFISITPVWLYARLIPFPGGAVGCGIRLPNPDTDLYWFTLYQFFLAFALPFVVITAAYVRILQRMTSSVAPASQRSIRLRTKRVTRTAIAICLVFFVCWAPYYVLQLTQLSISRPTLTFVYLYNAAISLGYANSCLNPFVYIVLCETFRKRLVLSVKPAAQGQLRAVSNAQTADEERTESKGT
Excerpt: MCH1 antagonist compounds were identified by their ability to inhibit the MCH-elicited response. […]. From the IC50 values, the antagonist potency (Kb)was derived using the Cheng-Prussof correction (Lazareno and Birdsall, 1993). […]

human GALR1 receptor = molecular target: T4, human GALR1 receptor (Homo sapiens, UniProt P47211); test: Binding affinity at the human GALR1 receptor; details: read-out: hGALR1 Ki
T4 construct: expressed in transfected cells
T4 sequence (P47211 1-349): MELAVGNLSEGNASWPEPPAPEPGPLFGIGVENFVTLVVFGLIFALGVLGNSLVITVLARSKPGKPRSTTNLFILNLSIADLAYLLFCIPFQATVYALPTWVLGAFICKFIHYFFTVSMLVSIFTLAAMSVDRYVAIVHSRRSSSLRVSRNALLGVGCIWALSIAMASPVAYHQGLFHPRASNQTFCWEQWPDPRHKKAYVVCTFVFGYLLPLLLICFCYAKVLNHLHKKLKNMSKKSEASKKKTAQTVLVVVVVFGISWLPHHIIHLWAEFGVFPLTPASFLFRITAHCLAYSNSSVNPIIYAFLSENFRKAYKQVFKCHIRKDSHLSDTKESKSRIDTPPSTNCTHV
Excerpt: as §1

human MCH1 receptor [2] = molecular target: T3, human MCH1 receptor; test: Competition binding, membrane preparations of A293 cells expressing the human MCH1 receptor, [3H] Compound 10 as radioligand; parameters: expressed in transfected cells; details: Table 3b; A293 cell membranes, [3H] Compound 10; read-out: hMCH1* Ki
Protocol: TRITIATED METHYL (4S)-3-{[(3-{4-[3-(ACETYLAMINO)PHENYL]-1-[…]}PROPYL)AMINO]CARBONYL}-4-(3,4-DIFLUOROPHENYL)-6-(METHOXYMETHYL)-2-OXO-1,2,3,4-TETRAHYDRO-5-PYRIMIDINECARBOXYLATE ([^3H] COMPOUND 10): This radiochemical synthesis was carried out by Amersham Pharmacia Biotech, Cardiff, Wales. A methanolic solution of methyl (4S)-3-({[3-(4-[3-(acetylamino)phenyl]-3,6-dihydro-1(2H)pyridinyl)propyl]amino}carbonyl)-4-(3,4-difluorophenyl)-6-(methoxymethyl)-2-oxo-1,2,3,4-tetrahydro-5-pyrimidinecarboxylate was exposed to tritium gas at 1 atmosphere pressure in the presence of 5% palladium on carbon with stirring overnight to give the tritiated methyl (4S)-3-{[(3-{4-[3-(acetylamino)phenyl]-1-piperidinyl}propyl)amino]carbonyl}-4-(3,4-difluorophenyl)-6-(methoxymethyl)-2-oxo-1,2,3,4-tetrahydro-5-pyrimidinecarboxylate ((+)-isomer) After purification by reverse phase HPLC (Hypersil ODS, 4.6×100 mm, methanol:H2O:Et3N 10:90:1 to 100:0:1 in 15 min at 1.0 mL/min, with radiochemical and UV detection), this product was used as a radioligand in the MCH1 binding assays. The same procedure was carried out with H2 gas in place of ^3H2 to afford the non-radioactive version of Compound 10.

rat 5HT2C receptor = molecular target: T5, rat 5HT2C receptor (Rattus norvegicus, UniProt P08909); test: Binding affinity at the rat 5HT2C receptor; details: Table 3a; read-out: r5HT2C Ki
T5 construct: expressed in transfected cells
T5 sequence (P08909 33-460): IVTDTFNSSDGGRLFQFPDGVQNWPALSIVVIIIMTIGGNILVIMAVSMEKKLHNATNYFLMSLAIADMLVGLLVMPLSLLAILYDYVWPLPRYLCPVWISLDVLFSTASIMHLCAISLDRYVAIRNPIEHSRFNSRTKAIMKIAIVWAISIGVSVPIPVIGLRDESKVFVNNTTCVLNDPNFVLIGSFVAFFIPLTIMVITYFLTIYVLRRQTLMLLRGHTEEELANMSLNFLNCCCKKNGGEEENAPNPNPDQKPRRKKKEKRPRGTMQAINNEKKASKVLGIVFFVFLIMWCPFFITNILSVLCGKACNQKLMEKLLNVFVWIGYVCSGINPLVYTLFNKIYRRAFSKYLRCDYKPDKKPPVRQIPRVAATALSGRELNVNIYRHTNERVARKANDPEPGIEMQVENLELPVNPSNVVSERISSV
Excerpt: as §1
Other 5HT Receptors: Other serotonin receptor binding assays were performed according to published methods: rat 5HT2C receptor (Julius et al., 1988); and 5HT6 (Monsma, et al., 1993). The binding assays using the 5HT4 receptor were performed according to the procedures described in U.S. Pat. No. 5,766,879, the disclosure of which is hereby incorporated by reference in its entirety into this application.

[3] = tested on: micturition reflex, conscious male Sprague Dawley rats; test: Continuous Slow Transvesicular Infusion (CSTI) rat model; type: in vivo; parameters: key to Effect of MCH1 antagonist in the CSTI model: B = Produced an increase in bladder capacity in rats relative to baseline capacity; details: bladder capacity, intragastric
Protocol: The effects of compounds on the micturition reflex were assessed in the “distension-induced rhythmic contraction” (DIRC), as described in previous publications (e.g. Maggi et al, 1987; Morikawa et al, 1992), and Continuous Slow Transvesicular Infusion (CSTI) models in rats. Male Sprague Dawley rats weighing approximately 300 g were used for the study. Rats were anaesthetized with pentobarbitone sodium (50 mg/kg, i.p). Through a median abdominal incision, bladder was exposed and a polyethylene cannula (PE 50) was introduced into the bladder through a small cut on the dome of the bladder and the cannula was secured with a purse string suture. The other end of the cannula was exteriorized subcutaneously at the dorsal neck area. Similarly, another cannula (PE 50) was introduced into the stomach through a paramedian abdominal incision with the free end exteriorized subcutaneously to the neck region. The surgical wounds were closed with silk 4-0 suture and the animal was allowed to recover with appropriate post surgical care. On the following day, the animal was placed in a rat restrainer. The open end of the bladder cannula was connected to a pressure transducer as well as infusion pump through a three-way stopcock. The bladder voiding cycles were initiated by continuous infusion of normal saline at the rate of 100 ul/min. The repetitive voiding contractions were recorded on a Power Lab on-line data acquisition software. After recording the basal voiding pattern for an hour, the test drug or vehicle was administered directly into stomach through the intragastric catheter and the voiding cycles were monitored for 5 hours. Micturition pressure and frequency were calculated before and after the treatment (at every 30 min interval) for each animal. Bladder capacity was calculated from the micturition frequency, based on the constant infusion of 100 ul/min. The effect of the test drug was expressed as a percentage of basal, pre-drug bladder capacity. WAY 100635 was used as positive control for comparison.

rat MCH1 receptor = molecular target: T6, rat MCH1 receptor (Rattus norvegicus, UniProt P97639); test: Binding affinity (Ki) at the rat MCH1 receptor; details: Examples 142-153; read-out: Ki (nM) rMCH1
T6 construct: expressed in transfected cells
T6 sequence (P97639 whole entry): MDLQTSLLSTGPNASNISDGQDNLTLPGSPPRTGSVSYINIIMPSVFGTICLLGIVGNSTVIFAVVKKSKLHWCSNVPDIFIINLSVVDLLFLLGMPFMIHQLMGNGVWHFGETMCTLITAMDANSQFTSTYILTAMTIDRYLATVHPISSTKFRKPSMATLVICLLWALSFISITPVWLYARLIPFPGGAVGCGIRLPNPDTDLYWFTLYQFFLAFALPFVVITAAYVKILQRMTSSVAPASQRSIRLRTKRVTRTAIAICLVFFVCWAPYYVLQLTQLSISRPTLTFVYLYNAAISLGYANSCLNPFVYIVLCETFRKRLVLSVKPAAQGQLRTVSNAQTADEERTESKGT

Row | Structure (SMILES) | Effect of MCH1 antagonist in the CSTI model [3] | Ki (rat MCH1 receptor) [nM] | further results
1 | COCC1=C(C(=O)OC)C(c2ccc(F)c(F)c2)N(C(=O)NCCCN2CCC(c3cccc4ccccc34)CC2)C(=O)N1 (single isomer, unassigned; (+)) [Example 14, (+)-1,2,3,6-TETRAHYDRO-1-{N-[4-(1-NAPHTHYL)-PIPERIDIN-1-YL]PROP-YL}CARBOXAMIDO-4-METHOXYMETHYL-6-(3,4-DIFLUOROPHENYL)-2-OXO-PYRIMIDINE-5-CARBOXYLIC ACID METHYL ESTER] | – | – | Ki (human GALR3 receptor; Table 3a): > 50000 nM; Ki (human GALR3 receptor; Table 3b): > 50000 nM; Ki (human GALR2 receptor): 42600 nM; Kb (human MCH1 receptor [1]): 2 nM; Ki (human GALR1 receptor; Table 3a): > 50000 nM; Ki (human GALR1 receptor; Table 3b): > 50000 nM; Ki (human MCH1 receptor [2]): 50 nM; Ki (rat 5HT2C receptor): 663 nM; melting point: 168 to 172 °C
2 | COc1ccc2[nH]c(-c3ccccc3)c(CCCN3CCC(c4cccc(NC(=O)C(C)C)c4)CC3)c2c1 [Example 147] | B | 2.3 | –
3 | CCn1c2ccccc2c2cc(CN3CCC(c4cccc(NC(=O)C(C)C)c4)CC3)ccc21 [Example 148] | B | 1.7 | –
4 | Cc1ccc(NC(=O)C(C)C)cc1C1CCN(Cc2ccc(Oc3ccc(F)c(F)c3)cc2)CC1 [Example 152] | B | 2.2 | –
5 | CC(C)C(=O)Nc1cccc(C2CCN(CCCNC(=O)C(c3ccccc3)c3ccccc3)CC2)c1 [Example 153] | B | 2.9 | –
6 | CC(=O)C1=C(C)NC(=O)N(C(=O)NCCCN2CCC(c3cccc(NC(=O)C(C)C)c3)CC2)[C@H]1c1cc(F)c(F)c(F)c1 [Example 155, (+)-5-ACETYL-N-(3-{4-[3-(ISOBUTYRYLAMINO)PHENYL]-1-PIPERIDINYL}PROPYL)-4-METHYL-2-OXO-6-(3,4,5-TRIFLUOROPHENYL)-3,6-DIHYDRO-1(2H)-PYRIMIDINECARBOXAMIDE. HYDROCHLORIDE SALT] | B | – | –
